The values that follow come from patent US11058678B2 (Enanta Pharmaceuticals, Inc., priority 2018, dated 2021).

In general, EC50 refers to the midpoint of the concentration-response curve.

A value given as a limit tells only on which side of the number the result lay.

This assay deals with HBV (2.2.15 cells). Briefly: Antiviral activity in 2.2.15 cells: reduction of viral product accumulation (qPCR of lysates, HBsAg or HBeAg ELISA). It is filed as cell-based, hepatitis B virus (HBV). The following applies: Hepatitis B virus, 120 h, day 5 post treatment, 50% reduction of viral product accumulation in lysates or supernatants vs no drug controls, readout (qPCR, HBsAg, HBeAg) not specified. The gist of the method:
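HBV-producing 2.2.15 cells, 35,000/well, treated with 5-fold serial compound dilutions at 0.5% final DMSO for 5 days. Lysate HBV DNA by qPCR or supernatant HBsAg/HBeAg by ELISA; EC50 is 50% reduction versus no-drug control, binned A<0.1 μM, B 0.1-1 μM, C>1 μM.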
As to `COCCCOc1cc2c(cc1-c1cn(C)nc1C)-c1cc(=O)c(C(=O)O)cn1[C@H](C(C)(C)C)C2` [Example 32, (S)-6-(tert-butyl)-10-(1,3-dimethyl-1H-pyrazol-4-yl)-9-(3-methoxypropoxy)-2-oxo-6,7-dihydro-2H-pyrido[2,1-a]isoquinoline-3-carboxylic Acid], the EC50 was less than 100 nM.

Consider `CC(C)[C@@H]1Cc2c(cc(-c3ccnn3C)c3c2CCO3)-c2cc(=O)c(C(=O)O)cn21` [Example 96, (S)-5-isopropyl-12-(1-methyl-1H-pyrazol-5-yl)-9-oxo-2,3,4,9-tetrahydro-5H-furo[3,2-f]pyrido[2,1-a]isoquinoline-8-carboxylic Acid], for which the EC50 was less than 100 nM.

The compound `COCCCOc1cc2c(cc1-c1ccccc1Cl)-c1cc(=O)c(C(=O)O)cn1[C@H]1[C@@H]2COC1(C)C` [Example 139, (3aS,12bR)-10-(2-chlorophenyl)-11-(3-methoxypropoxy)-3,3-dimethyl-7-oxo-3,3a,7,12b-tetrahydro-1H-furo[3,4-c]pyrido[2,1-a]isoquinoline-6-carboxylic Acid] registered an EC50 of less than 100 nM.

`COCCCOc1cc2c(cc1-c1ccccc1OC(F)(F)F)-c1cc(=O)c(C(=O)O)cn1[C@H](C(C)(C)C)C2` [Example 58, (S)-6-(tert-butyl)-9-(3-methoxypropoxy)-2-oxo-10-(2-(trifluoromethoxy)phenyl)-6,7-dihydro-2H-pyrido[2,1-a]isoquinoline-3-carboxylic Acid] displayed an EC50 greater than 1000 nM.

`CC(C)[C@@H]1Cc2c(cc(-c3cnn(C)c3)c3c2CCO3)-c2cc(=O)c(C(=O)O)cn21` [Example 97, (S)-5-isopropyl-12-(1-methyl-1H-pyrazol-4-yl)-9-oxo-2,3,4,9-tetrahydro-5H-furo[3,2-f]pyrido[2,1-a]isoquinoline-8-carboxylic Acid]: the EC50 is less than 100 nM.

In the case of `CC(C)(C)[C@@H]1Cc2c(cc(N3CCC3)c3c2CCO3)-c2cc(=O)c(C(=O)O)cn21` [Example 111, (S)-12-(azetidin-1-yl)-5-(tert-butyl)-9-oxo-2,3,4,9-tetrahydro-5H-furo[3,2-f]pyrido[2,1-a]isoquinoline-8-carboxylic Acid], the EC50 is less than 100 nM.

In turn, `COCCCOc1cc2c(cc1-c1cnco1)-c1cc(=O)c(C(=O)O)cn1[C@H]1[C@@H]2COC1(C)C` [Example 121, (3aS,12bR)-11-(3-methoxypropoxy)-3,3-dimethyl-10-(oxazol-5-yl)-7-oxo-3,3a,7,12b-tetrahydro-1H-furo[3,4-c]pyrido[2,1-a]isoquinoline-6-carboxylic Acid] showed an EC50 of less than 100 nM.

Consider `COCCCOc1cc2c(cc1-c1ccc3c(c1)OCCC3)-c1cc(=O)c(C(=O)O)cn1[C@H](C(C)(C)C)C2` [Example 39, (S)-6-(tert-butyl)-10-(chroman-7-yl)-9-(3-methoxypropoxy)-2-oxo-6,7-dihydro-2H-pyrido[2,1-a]isoquinoline-3-carboxylic Acid], for which the EC50 is greater than 1000 nM.

For `COCCCOc1cc2c(cc1-c1nnco1)-c1cc(=O)c(C(=O)O)cn1[C@H](C(C)(C)C)C2` [Example 36, (S)-6-(tert-butyl)-9-(3-methoxypropoxy)-10-(1,3,4-oxadiazol-2-yl)-2-oxo-6,7-dihydro-2H-pyrido[2,1-a]isoquinoline-3-carboxylic Acid], the EC50 is less than 100 nM.

`CC(C)[C@@H]1Cc2c(cc(-c3ccc(C(F)(F)F)cc3)c3c2CCO3)-c2cc(=O)c(C(=O)O)cn21` [Example 94, (S)-5-isopropyl-9-oxo-12-(4-(trifluoromethyl)phenyl)-2,3,4,9-tetrahydro-5H-furo[3,2-f]pyrido[2,1-a]isoquinoline-8-carboxylic Acid] registered an EC50 greater than 1000 nM.

With `CC(C)[C@@H]1Cc2c(cc(-c3ccn[nH]3)c3c2CCO3)-c2cc(=O)c(C(=O)O)cn21` [Example 106, (S)-5-isopropyl-9-oxo-12-(1H-pyrazol-5-yl)-2,3,4,9-tetrahydro-5H-furo[3,2-f]pyrido[2,1-a]isoquinoline-8-carboxylic Acid], the EC50 was less than 100 nM.
